Assay results taken from patent US20260124197A1, “NOVEL HETEROBICYCLIC COMPOUND FOR INHIBITING YAP-TEAD INTERACTION AND PHARMACEUTICAL COMPOSITION COMPRISING SAME” (priority 2022, published 2026).

System: TEAD transcriptional activity
Assay: TEAD reporter activity inhibition test (luciferase reporter, MCF7 cell line)
Type: cell-based
Details: Homo sapiens; TEAD (GTIIC) firefly luciferase reporter MCF7 cell line, 24 hours, ONE-Glo luminescence
Procedure: Experimental Example 1: TEAD Reporter Activity Inhibition Test
The ability of the synthetic compounds to inhibit TEAD target gene transcription was measured. This evaluation method measures the transcriptional activity of TEAD by measuring the luciferase luminescence expressed when TEAD binds to a target gene and activates transcription using the MCF7 cell line (BPS Bioscience, Inc., USA) in which a firefly luciferase reporter gene has been introduced into the specific binding structure of TEAD, GTIIC (5′-ACATTCCA-3′). Cell lines were cultured in MEM medium added with 10% FBS, 1% Penicillin/Streptomycin, 1% non-essential amino acids, 10 μg/ml insulin, and 400 μg/ml Geneticin, and Geneticin was excluded when testing for inhibition of TEAD reporter activity. […] cells/100 μl were dispensed into a white 96-well plate and cultured for 6 hours. 50 μl of the test compound diluted to 3× concentration was mixed into each well. After 24 hours of cell culture, the luciferase signal was measured by luminescence using the ONE-Glo luciferase assay system (Promega, E6120) following the manufacturer's protocol. The 50% inhibition value (IC50) for TEAD transcriptional activity was calculated using GraphPad Prism 9.
If the IC50 value is less than 100 nM, it is indicated as A, if it is at least 100 nM but less than 500 nM, it is indicated as B, and if it is 500 nM or more, it is indicated as C.

Structure (SMILES)	IC50
CNS(=O)(=O)c1ccc2c(c1)c(-c1nccnc1C)cn2-c1ccc(C(F)(F)F)cc1 [Example 1, N-methyl-3-(3-methylpyrazin-2-yl)-1-(4-(trifluoromethyl)phenyl)-1H-indole-5-sulfonamide]	≥ 500 nM
CNS(=O)(=O)c1ccc2c(c1)c(-c1ccc(C)s1)cn2-c1ccc(C(F)(F)F)cc1 [Example 9, N-methyl-3-(5-methylthiophen-2-yl)-1-(4-(trifluoromethyl)phenyl)-1H-indole-5-sulfonamide]	100 to 500 nM
CNS(=O)(=O)c1ccc2c(c1)c(-c1ccncc1)cn2-c1ccc(C(F)(F)F)cc1 [Example 15, N-methyl-3-(pyridin-4-yl)-1-(4-(trifluoromethyl)phenyl)-1H-indole-5-sulfonamide]	100 to 500 nM
CNS(=O)(=O)c1ccc2c(c1)c(-c1ccccc1)cn2-c1ccc(C(F)(F)F)cc1 [Example 17, N-methyl-3-phenyl-1-(4-(trifluoromethyl)phenyl)-1H-indole-5-sulfonamide]	100 to 500 nM
CNS(=O)(=O)c1ccc2c(c1)c(-c1cn(C)cn1)cn2-c1ccc(C2CCCCC2)cc1 [Example 18, 1-(4-cyclohexylphenyl)-N-methyl-3-(1-methyl-1H-imidazol-4-yl)-1H-indole-5-sulfonamide]	≥ 500 nM
CNS(=O)(=O)c1ccc2c(c1)c(-c1ccc(C)o1)cn2-c1ccccc1 [Example 24, N-methyl-3-(5-methylfuran-2-yl)-1-phenyl-1H-indole-5-sulfonamide]	100 to 500 nM
CNS(=O)(=O)c1ccc2c(c1)c(-c1cccc(F)c1F)cn2-c1ccc(C(F)(F)F)cc1 [Example 25, 3-(2,3-difluorophenyl)-N-methyl-1-(4-(trifluoromethyl)phenyl)-1H-indole-5-sulfonamide]	< 100 nM
CNS(=O)(=O)c1ccc2c(c1)c(-c1cn(Cc3ccccc3F)cn1)cn2-c1ccc(C(F)(F)F)cc1 [Example 30, 3-(1-(2-fluorobenzyl)-1H-imidazol-4-yl)-N-methyl-1-(4-(trifluoromethyl)phenyl)-1H-indole-5-sulfonamide]	< 100 nM
CNS(=O)(=O)c1ccc2c(c1)c(-c1ccc(C(F)(F)F)o1)cn2-c1ccc(C(F)(F)F)cc1 [Example 34, N-methyl-3-(5-(trifluoromethyl)furan-2-yl)-1-(4-(trifluoromethyl)phenyl)-1H-indole-5-sulfonamide]	100 to 500 nM
CNS(=O)(=O)c1ccc2c(c1)c(-c1cn(C3COC3)cn1)cn2-c1ccc(C(F)(F)F)cc1 [Example 35, N-methyl-3-(1-(oxetan-3-yl)-1H-imidazol-4-yl)-1-(4-(trifluoromethyl)phenyl)-1H-indole-5-sulfonamide]	100 to 500 nM
CNS(=O)(=O)c1ccc2c(c1)c(-c1ccc(Cl)o1)cn2-c1ccc(C(F)(F)F)cc1 [Example 36, 3-(5-chlorofuran-2-yl)-N-methyl-1-(4-(trifluoromethyl)phenyl)-1H-indole-5-sulfonamide]	100 to 500 nM
CNS(=O)(=O)c1ccc2c(c1)c(-c1cn(CC(F)(F)F)cn1)cn2-c1ccc(C(F)(F)F)cc1 [Example 37, N-methyl-3-(1-(2,2,2-trifluoroethyl)-1H-imidazol-4-yl)-1-(4-(trifluoromethyl)phenyl)-1H-indole-5-sulfonamide]	< 100 nM
CNS(=O)(=O)c1ccc2c(c1)c(-c1cnco1)cn2-c1ccc(C(F)(F)F)cc1 [Example 41, N-methyl-3-(oxazol-5-yl)-1-(4-(trifluoromethyl)phenyl)-1H-indole-5-sulfonamide]	100 to 500 nM
CNS(=O)(=O)c1ccc2c(c1)c(-c1cn3c(n1)CCC3)cn2-c1ccc(C(F)(F)F)cc1 [Example 45, 3-(6,7-dihydro-5H-pyrrolo[1,2-a]imidazol-2-yl)-N-methyl-1-(4-(trifluoromethyl)phenyl)-1H-indole-5-sulfonamide]	< 100 nM
CNS(=O)(=O)c1ccc2c(c1)c(N1CC(F)C1)cn2-c1ccc(C(F)(F)F)cc1 [Example 46, 3-(3-fluoroazetidin-1-yl)-N-methyl-1-(4-(trifluoromethyl)phenyl)-1H-indole-5-sulfonamide]	< 100 nM
CNS(=O)(=O)c1ccc2c(c1)c(-c1cn(CC(=O)N(C)C)cn1)cn2-c1ccc(C(F)(F)F)cc1 [Example 47, N,N-dimethyl-2-(4-(5-(N-methylsulfamoyl)-1-(4-(trifluoromethyl)phenyl)-1H-indol-3-yl)-1H-imidazole-1-yl) acetamide]	≥ 500 nM

Second part, the compound after the results:

IC50	Structure (SMILES)
100 to 500 nM	CNS(=O)(=O)c1ccc2c(c1)c(-c1ccn(C)n1)cn2-c1ccc(C(F)(F)F)cc1 [Example 3, N-methyl-3-(1-methyl-1H-pyrazol-3-yl)-1-(4-(trifluoromethyl)phenyl)-1H-indole-5-sulfonamide]
100 to 500 nM	CNS(=O)(=O)c1ccc2c(c1)c(-c1cnn(C)c1)cn2-c1ccc(C(F)(F)F)cc1 [Example 4, N-methyl-3-(1-methyl-1H-pyrazol-4-yl)-1-(4-(trifluoromethyl)phenyl)-1H-indole-5-sulfonamide]
100 to 500 nM	CNS(=O)(=O)c1ccc2c(c1)c(-c1cn(C)cn1)cn2-c1ccc(OC(F)(F)F)cc1 [Example 5, N-methyl-3-(1-methyl-1H-imidazol-4-yl)-1-(4-(trifluoromethoxy)phenyl)-1H-indole-5-sulfonamide]
≥ 500 nM	CNS(=O)(=O)c1ccc2c(c1)c(-c1cn(C(C)C)cn1)cn2-c1ccc(C(F)(F)F)cc1 [Example 6, 3-(1-isopropyl-1H-imidazol-4-yl)-N-methyl-1-(4-(trifluoromethyl)phenyl)-1H-indole-5-sulfonamide]
100 to 500 nM	CCNS(=O)(=O)c1ccc2c(c1)c(-c1cn(C)cn1)cn2-c1ccc(C(F)(F)F)cc1 [Example 7, N-ethyl-3-(1-methyl-1H-imidazol-4-yl)-1-(4-(trifluoromethyl)phenyl)-1H-indole-5-sulfonamide]
100 to 500 nM	CNS(=O)(=O)c1ccc2c(c1)c(-c1cn(C)cn1)cn2-c1ccc(C(F)(F)F)cn1 [Example 12, N-methyl-3-(1-methyl-1H-imidazol-4-yl)-1-(5-(trifluoromethyl)pyridin-2-yl)-1H-indole-5-sulfonamide]
100 to 500 nM	CNS(=O)(=O)c1ccc2c(c1)c(-c1cn(C)cn1)cn2-c1ccc(Cl)cc1 [Example 14, 1-(4-chlorophenyl)-N-methyl-3-(1-methyl-1H-imidazol-4-yl)-1H-indole-5-sulfonamide]
≥ 500 nM	CN(C)S(=O)(=O)c1ccc2c(c1)c(-c1cn(C)cn1)cn2-c1ccc(C(F)(F)F)cc1 [Example 19, N,N-dimethyl-3-(1-methyl-1H-imidazol-4-yl)-1-(4-(trifluoromethyl)phenyl)-1H-indole-5-sulfonamide]
100 to 500 nM	CNS(=O)(=O)c1ccc2c(c1)c(-c1cn(C)cn1)cn2-c1cccc(C(F)(F)F)c1 [Example 21, N-methyl-3-(1-methyl-1H-imidazol-4-yl)-1-(3-(trifluoromethyl)phenyl)-1H-indole-5-sulfonamide]
≥ 500 nM	CNS(=O)(=O)c1ccc2c(c1)c(-c1cn(C)cn1)cn2-c1ccc(C#N)cc1 [Example 22, 1-(4-cyanophenyl)-N-methyl-3-(1-methyl-1H-imidazol-4-yl)-1H-indole-5-sulfonamide]
≥ 500 nM	CNS(=O)(=O)c1ccc2c(c1)c(-c1cn(C)cn1)cn2-c1ccccc1 [Example 26, N-methyl-3-(1-methyl-1H-imidazol-4-yl)-1-phenyl-1H-indole-5-sulfonamide]
< 100 nM	CNS(=O)(=O)c1ccc2c(c1)c(-c1cn(C)cn1)cn2-c1ccc(C(F)(F)F)c(Cl)c1 [Example 27, 1-(3-chloro-4-(trifluoromethyl)phenyl)-N-methyl-3-(1-methyl-1H-imidazol-4-yl)-1H-indole-5-sulfonamide]
100 to 500 nM	CNS(=O)(=O)c1ccc2c(c1)c(-c1c[nH]cn1)cn2-c1ccc(C(F)(F)F)cc1 [Example 29, 3-(1H-imidazol-4-yl)-N-methyl-1-(4-(trifluoromethyl)phenyl)-1H-indole-5-sulfonamide]
100 to 500 nM	CNS(=O)(=O)c1ccc2c(-c3cn(C)cn3)cn(-c3ccc(C(F)(F)F)cc3)c2c1 [Example 33, N-methyl-3-(1-methyl-1H-imidazol-4-yl)-1-(4-(trifluoromethyl)phenyl)-1H-indole-6-sulfonamide]
100 to 500 nM	CNS(=O)(=O)c1ccc2c(c1)c(-c1cn(C)cn1)cn2-c1ccc(C)cc1 [Example 39, N-methyl-3-(1-methyl-1H-imidazol-4-yl)-1-(p-tolyl)-1H-indole-5-sulfonamide]
< 100 nM	CNS(=O)(=O)c1ccc2c(c1)c(-c1cn(C)cn1)cn2-c1ccc(C(C)(C)C)cc1 [Example 40, 1-(4-(t-butyl)phenyl)-N-methyl-3-(1-methyl-1H-imidazol-4-yl)-1H-indole-5-sulfonamide]
100 to 500 nM	CNS(=O)(=O)c1ccc2c(c1)c(-c1cn(CCS(C)(=O)=O)cn1)cn2-c1ccc(C(F)(F)F)cc1 [Example 48, N-methyl-3-(1-(2-(methylsulfonyl)ethyl)-1H-imidazol-4-yl)-1-(4-(trifluoromethyl)phenyl)-1H-indole-5-sulfonamide]
